Experimental findings from PubChem BioAssay (NCI) are described below.

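Grown in 96-well plates, cells were treated for 48 hours with each compound at five concentrations. Insufficient inhibition: endpoint recorded as highest concentration tested. TGI: concentration producing complete growth inhibition.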

Some test systems named below: HT29 colon; U251 CNS; HOP-92 NSCLC; OVCAR-5 ovarian; T-47D breast; UO-31 renal; NCI-H522 lung; RPMI-8226 leukemia; ACHN renal; BT-549 breast.
What all share (experiment): growth of human tumour cells (NCI), 48 h

For `CC(NC(=O)/C(=C/c1ccccc1O)NC(=O)c1ccccc1)C(=O)O` (stereo not given), the TGI was > 100 µM in the assay on HT29 colon; > 100 µM with U251 CNS; > 100 µM with HOP-92 NSCLC; > 100 µM in the assay with OVCAR-5 ovarian; > 100 µM in the assay with T-47D breast; 34.6 µM in the assay on UO-31 renal. Further, the TGI is 50 µM in the assay on NCI-H522 lung, > 100 µM with RPMI-8226 leukemia, 33.2 µM in the assay with ACHN renal and 50.2 µM with BT-549 breast.
